# Molecular target: T1, purified recombinant human p38 alpha MAPK (Homo sapiens, UniProt Q16539)
# T1 construct: purchased Millipore, USA
# Assay: Inhibition of p38 alpha MAPK activity: TR-FRET kinase assay
# Format: biochemical
# Conditions: Concentration 1 μM
# Description: Inhibition of p38 Alpha MAPK Activity: Time-Resolved Fluorescence Resonance Energy Transfer Kinase Standard Assay (TR-FRET Assay)
# Compounds of present invention at various concentrations were premixed with DMSO. The experiment was initiated by mixing 0.5% 1.0% DMSO as vehicle/compounds with purified recombinant human p38 alpha MAPK (Millipore, USA) in the wells and 15 min incubation at RT. Thereafter, 30 nM of Biotinylated GST-ATF2 (Activation Transcription Factor2) and 100 μM of ATP were added in to the wells containing reaction mixture, followed by reincubation for 60 minutes at RT. Reaction was terminated by addition of 10 mM of EDTA and detection reagent containing anti-phosphothreonine ATF2 antibody (Perkin Elmer, USA) labelled with europium chelate and APC (Allophycocyanin) labeled streptavidin, into the reaction mixture which was further incubated for 60 minutes at room temperature. The degree of phosphorylation of the substrate (GST-ATF2) was measured using Envision multimode reader (Perkin Elmer). Percentage inhibition of p38 kinase activity was calculated by determining ratio of specific europium 665 nm energy transfer signal to reference 615 nm signal.
# T1 sequence (Q16539 whole entry): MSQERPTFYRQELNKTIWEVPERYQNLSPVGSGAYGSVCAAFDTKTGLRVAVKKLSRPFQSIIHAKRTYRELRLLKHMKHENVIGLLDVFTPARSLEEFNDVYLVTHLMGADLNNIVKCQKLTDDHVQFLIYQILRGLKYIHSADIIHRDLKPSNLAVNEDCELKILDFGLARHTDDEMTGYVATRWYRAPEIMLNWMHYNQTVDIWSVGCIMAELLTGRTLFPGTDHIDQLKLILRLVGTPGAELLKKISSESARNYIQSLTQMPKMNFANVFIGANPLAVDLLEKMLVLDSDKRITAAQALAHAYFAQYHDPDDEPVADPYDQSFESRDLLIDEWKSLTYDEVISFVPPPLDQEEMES
row,P38α Inhibition,Compound
1,+++++ (+++++ = Inhibition ≥80% ≤ 100%),"1-(3-tert-butyl-1-phenyl-1H-pyrazol-5-yl)-3-(2-{[3-(hydroxymethyl)-2-methylimidazo[2,1-b][1,3]benzothiazol-7-yl]oxy}benzyl)urea [Compound 38]"

# Same assay, conditions: Concentration 1 μM; read-out: P38α Inhibition
row,Compound,inhibition at 1 µM
1,"CC(C)(C)c1cc(NC(=O)NCc2ccccc2Oc2ccc3c(c2)sc2ncc(C(=O)NC(CO)CO)n23)n(-c2ccc(O)c(Cl)c2)n1 [Compound 21, 7-{2-[({[3-tert-butyl-1-(3-chloro-4-hydroxyphenyl)-1H-pyrazol-5-yl]carbamoyl}amino)methyl]phenoxy}-N-(1,3-dihydroxypropan-2-yl)imidazo[2,1-b][1,3]benzothiazole-3-carboxamide]",80 to 100%
2,"CN(CCO)C(=O)c1cnc2sc3cc(Oc4ccccc4CNC(=O)Nc4cc(C(C)(C)C)nn4-c4ccc(O)c(Cl)c4)ccc3n12 [Compound 28, 7-{2-[({[3-tert-butyl-1-(3-chloro-4-hydroxyphenyl)-1H-pyrazol-5-yl]carbamoyl}amino)methyl]phenoxy}-N-(2-hydroxyethyl)-N-methylimidazo[2,1-b][1,3]benzothiazole-3-carboxamide]",80 to 100%
3,"CC(C)(C)c1cc(NC(=O)Nc2ccc(Oc3ccc4c(c3)sc3ncc(CO)n34)cc2)n(-c2ccc(O)c(Cl)c2)n1 [Compound 27, 1-[3-tert-butyl-1-(3-chloro-4-hydroxyphenyl)-1H-pyrazol-5-yl]-3-(4-{[3-(hydroxymethyl)imidazo[2,1-b][1,3]benzothiazol-7-yl]oxy}phenyl)urea]",60 to 80%
4,"CC(C)(C)c1cc(NC(=O)NCc2ccccc2Oc2ccc3c(c2)sc2ncc(COCC4CC4)n23)n(-c2ccc(O)c(Cl)c2)n1 [Compound 56, 1-[3-tert-butyl-1-(3-chloro-4-hydroxyphenyl)-1H-pyrazol-5-yl]-3-[2-({3-[(cyclopropylmethoxy)methyl]imidazo[2,1-b][1,3]benzothiazol-7-yl}oxy)benzyl]urea]",60 to 80%
5,"Cc1nc2sc3cc(Oc4ccccc4CNC(=O)Nc4cc(C(C)(C)C)nn4-c4ccc(O)c(Cl)c4)ccc3n2c1CN1CCOCC1 [Compound 40, 1-[3-tert-butyl-1-(3-chloro-4-hydroxyphenyl)-1H-pyrazol-5-yl]-3-(2-{[2-methyl-3-(morpholin-4-ylmethyl)imidazo[2,1-b][1,3]benzothiazol-7-yl]oxy}benzyl)urea]",80 to 100%
6,"CCOC(=O)c1cnc2sc3cc(Oc4ccccc4CNC(=O)NC4CCCCC4)ccc3n12 [Compound 46, ethyl 7-(2-{[(cyclohexylcarbamoyl)amino]methyl}phenoxy)imidazo[2,1-b][1,3]benzothiazole-3-carboxylate]",≤ 20%
7,"COc1ccc(-n2nc(C(C)(C)C)cc2NC(=O)Nc2ccc(Oc3ccc4c(c3)sc3ncc(C(=O)O)n34)cc2)cc1Cl [Compound 6, 7-[4-({[3-tert-butyl-1-(3-chloro-4-methoxyphenyl)-1H-pyrazol-5-yl]carbamoyl}amino)phenoxy]imidazo[2,1-b][1,3]benzothiazole-3-carboxylic acid]",80 to 100%
8,"CC(C)(C)c1cc(NC(=O)NCc2ccccc2Oc2ccc3c(c2)sc2ncc(C(=O)NCCO)n23)n(-c2ccc(O)cc2)n1 [Compound 14, 7-{2-[({[3-tert-butyl-1-(4-hydroxyphenyl)-1H-pyrazol-5-yl]carbamoyl}amino)methyl]phenoxy}-N-(2-hydroxyethyl)imidazo[2,1-b][1,3]benzothiazole-3-carboxamide]",80 to 100%
9,"CC(C)(C)c1cc(NC(=O)Nc2ccc(Oc3ccc4c(c3)sc3nc(C(=O)NCCN5CCOCC5)cn34)cc2)n(-c2ccc(O)c(Cl)c2)n1 [Compound 1, 7-[4-({[3-tert-butyl-1-(3-chloro-4-hydroxyphenyl)-1H-pyrazol-5-yl]carbamoyl}amino)phenoxy]-N-[2-(morpholin-4-yl)ethyl]imidazo[2,1-b][1,3]benzothiazole-2-carboxamide]",40 to 60%
10,"CC(C)(C)c1cc(NC(=O)Nc2ccc(Sc3ccc4c(c3)sc3ncc(CO)n34)cc2)n(-c2ccc(O)cc2)n1 [Compound 18, 1-[3-tert-butyl-1-(4-hydroxyphenyl)-1H-pyrazol-5-yl]-3-(4-{[3-(hydroxymethyl)imidazo[2,1-b][1,3]benzothiazol-7-yl]sulfanyl}phenyl)urea]",40 to 60%
11,"COCc1c(C)nc2sc3cc(Oc4ccccc4CNC(=O)Nc4cc(C(C)(C)C)nn4-c4ccc(O)c(Cl)c4)ccc3n12 [Compound 37, 1-[3-tert-butyl-1-(3-chloro-4-hydroxyphenyl)-1H-pyrazol-5-yl]-3-(2-{[3-(methoxymethyl)-2-methylimidazo[2,1-b][1,3]benzothiazol-7-yl]oxy}benzyl)urea]",80 to 100%

# Now from value to compound:
row,inhibition at 1 µM,Compound
1,≤ 20%,"CCOC(=O)c1cnc2sc3cc(Oc4ccccc4CNC(=O)NC(CO)c4ccccc4)ccc3n12 (centres unmarked) [Compound 42, ethyl 7-[2-({[(2-hydroxy-1-phenylethyl)carbamoyl]amino}methyl)phenoxy]imidazo[2,1-b][1,3]benzothiazole-3-carboxylate]"
2,80 to 100%,"Cc1ccc(-n2nc(C(C)(C)C)cc2NC(=O)Nc2ccc(Oc3ccc4c(c3)sc3nc(C(=O)NCCO)cn34)cc2)cc1 [Compound 4, 7-[4-({[3-tert-butyl-1-(4-methylphenyl)-1H-pyrazol-5-yl]carbamoyl}amino)phenoxy]-N-(2-hydroxyethyl)imidazo[2,1-b][1,3]benzothiazole-2-carboxamide]"
3,40 to 60%,"CCOC(=O)c1cnc2sc3cc(Oc4ccccc4CNC(=O)Nc4ccc(OC)c(Cl)c4)ccc3n12 [Compound 44, ethyl 7-[2-({[(3-chloro-4-methoxyphenyl)carbamoyl]amino}methyl)phenoxy]imidazo[2,1-b][1,3]benzothiazole-3-carboxylate]"
4,80 to 100%,"CCOC(=O)c1cnc2sc3cc(Oc4ccccc4CNC(=O)Nc4cc(C(C)(C)C)nn4-c4ccc(OC)cc4)ccc3n12 [Compound 12, ethyl 7-{2-[({[3-tert-butyl-1-(4-methoxyphenyl)-1H-pyrazol-5-yl]carbamoyl}amino)methyl]phenoxy}imidazo[2,1-b][1,3]benzothiazole-3-carboxylate]"
5,60 to 80%,"Cc1cnc(-c2cnc3sc4cc(Oc5ccccc5CNC(=O)Nc5cc(C(C)(C)C)nn5-c5ccc(O)c(Cl)c5)ccc4n23)o1 [Compound 64, 1-[3-tert-butyl-1-(3-chloro-4-hydroxyphenyl)-1H-pyrazol-5-yl]-3-(2-{[3-(5-methyl-1,3-oxazol-2-yl)imidazo[2,1-b][1,3]benzothiazol-7-yl]oxy}benzyl)urea]"
6,80 to 100%,"COCc1c(C)nc2sc3cc(Oc4ccccc4CNC(=O)Nc4ccc(Cl)c(C(F)(F)F)c4)ccc3n12 [Compound 49, 1-[4-chloro-3-(trifluoromethyl)phenyl]-3-(2-{[3-(methoxymethyl)-2-methylimidazo[2,1-b][1,3]benzothiazol-7-yl]oxy}benzyl)urea]"
7,80 to 100%,"CC(C)(C)c1cc(NC(=O)NCc2ccccc2Oc2ccc3c(c2)sc2ncc(C(=O)O)n23)n(-c2ccc(O)cc2)n1 [Compound 13, 7-{2-[({[3-tert-butyl-1-(4-hydroxyphenyl)-1H-pyrazol-5-yl]carbamoyl}amino)methyl]phenoxy}imidazo[2,1-b][1,3]benzothiazole-3-carboxylic acid]"
8,80 to 100%,"CC(C)(C)c1cc(NC(=O)Nc2ccc(Sc3ccc4c(c3)sc3ncc(C(=O)O)n34)cc2)n(-c2ccc(O)cc2)n1 [Compound 9, 7-{[4-({[3-tert-butyl-1-(4-hydroxyphenyl)-1H-pyrazol-5-yl]carbamoyl}amino)phenyl]sulfanyl}imidazo[2,1-b][1,3]benzothiazole-3-carboxylic acid]"
9,20 to 40%,"CCOC(=O)c1cnc2sc3cc(Oc4ccc(NC(=O)Nc5cc(C(C)(C)C)nn5-c5ccc(OC)c(Cl)c5)cc4)ccc3n12 [Compound 5, ethyl 7-[4-({[3-tert-butyl-1-(3-chloro-4-methoxyphenyl)-1H-pyrazol-5-yl]carbamoyl}amino)phenoxy]imidazo[2,1-b][1,3]benzothiazole-3-carboxylate]"
10,≤ 20%,"CCOC(=O)c1cnc2sc3cc(Oc4ccc(NC(=O)Nc5ccc(Cl)c(C(F)(F)F)c5)cc4)ccc3n12 [Compound 47, ethyl 7-[4-({[4-chloro-3-(trifluoromethyl)phenyl]carbamoyl}amino)phenoxy]imidazo[2,1-b][1,3]benzothiazole-3-carboxylate]"
11,80 to 100%,"CC(C)(C)c1cc(NC(=O)NCc2ccccc2Oc2ccc3c(c2)sc2ncc(CN4CCOCC4)n23)n(-c2ccc(O)c(Cl)c2)n1 [Compound 35, 1-[3-tert-butyl-1-(3-chloro-4-hydroxyphenyl)-1H-pyrazol-5-yl]-3-(2-{[3-(morpholin-4-ylmethyl)imidazo[2,1-b][1,3]benzothiazol-7-yl]oxy}benzyl)urea]"

# Source: patent publication US10227361B2, “Fused imidazobenzothiazole compounds” (TORRENT PHARMACEUTICALS LIMITED, priority 2014, dated 2019)
